Source: US20070087009A1, “Immunostimulant composition comprising at least one toll-like receptor 7 or toll-like receptor 8 agonist and a toll-like receptor 4 agonist” (SANOFI PASTEUR, priority 2003, published 2007)

Legend:
BALB/c mice = assay: Immunization test on mice: specific IgG1 and IgG2a by ELISA; format: in vivo; details: Tat vaccine compositions; level and dispersion of the results between mice
Experimental: 5. Immunization Test on Mice.
There are available 4 groups of 6 female BALB/c mice 8 weeks old to which one of the compositions prepared in example 4 is injected subcutaneously at the rate of a dose of 200 μl per mouse; the injections are performed on D0 and at D21.
Blood samples are collected at the retro-orbital sinus at D14 for assessing the primary response and at D32 for the secondary response. The determination of the level of specific IgG1 and IgG2a is carried out by virtue of the standard ELISA tests.
The results obtained as regards the humoral responses are summarized in the table below and in FIGS. 1 to 4, where the IgG levels are expressed as arbitrary ELISA units (log10).
For each group of mice, the value indicated in the table is the mean geometric titer of the values obtained for each of the mice.

[1] = tested on: dendritic cells derived from human monocytes; assay: Stimulation of human cells in vitro: maturation markers by flow cytometry; format: cell-based; details: 2 days culture; DPPC liposomes, R-848 2.96 μg/ml, ER804057 0.1 μg/ml; mean of 4 donors
Experimental: (§1) The capacity of the compositions according to the invention to induce the maturation of dendritic cells derived from human monocytes in vitro is evaluated for 4 independent donors. The monocytes are obtained from peripheral blood mononuclear cells and are cultured for 5-6 days in the presence of IL4 and of GM-CSF. […] There are then carried out a phenotype analysis by flow cytometry, making it possible to measure the expression of the maturation markers CD25, CD80 and CD83, and an ELISA measurement of the cytokines (TNF-α, IL6 and IL12p70) secreted by these cells. The results indicated in the tables below represent the mean values calculated for the 4 donors: […]

[2] = tested on: dendritic cells derived from human monocytes; assay: Stimulation of human cells in vitro: ELISA of secreted cytokines; format: cell-based; details: 2 days culture; DPPC liposomes, R-848 2.96 μg/ml, ER804057 0.1 μg/ml; mean of 4 donors
Experimental: as §1

Toll-like 7 receptor = target: T1, Toll-like 7 receptor (Homo sapiens, UniProt Q9NYK1); details: cited from earlier work
T1 sequence (Q9NYK1 27-1049): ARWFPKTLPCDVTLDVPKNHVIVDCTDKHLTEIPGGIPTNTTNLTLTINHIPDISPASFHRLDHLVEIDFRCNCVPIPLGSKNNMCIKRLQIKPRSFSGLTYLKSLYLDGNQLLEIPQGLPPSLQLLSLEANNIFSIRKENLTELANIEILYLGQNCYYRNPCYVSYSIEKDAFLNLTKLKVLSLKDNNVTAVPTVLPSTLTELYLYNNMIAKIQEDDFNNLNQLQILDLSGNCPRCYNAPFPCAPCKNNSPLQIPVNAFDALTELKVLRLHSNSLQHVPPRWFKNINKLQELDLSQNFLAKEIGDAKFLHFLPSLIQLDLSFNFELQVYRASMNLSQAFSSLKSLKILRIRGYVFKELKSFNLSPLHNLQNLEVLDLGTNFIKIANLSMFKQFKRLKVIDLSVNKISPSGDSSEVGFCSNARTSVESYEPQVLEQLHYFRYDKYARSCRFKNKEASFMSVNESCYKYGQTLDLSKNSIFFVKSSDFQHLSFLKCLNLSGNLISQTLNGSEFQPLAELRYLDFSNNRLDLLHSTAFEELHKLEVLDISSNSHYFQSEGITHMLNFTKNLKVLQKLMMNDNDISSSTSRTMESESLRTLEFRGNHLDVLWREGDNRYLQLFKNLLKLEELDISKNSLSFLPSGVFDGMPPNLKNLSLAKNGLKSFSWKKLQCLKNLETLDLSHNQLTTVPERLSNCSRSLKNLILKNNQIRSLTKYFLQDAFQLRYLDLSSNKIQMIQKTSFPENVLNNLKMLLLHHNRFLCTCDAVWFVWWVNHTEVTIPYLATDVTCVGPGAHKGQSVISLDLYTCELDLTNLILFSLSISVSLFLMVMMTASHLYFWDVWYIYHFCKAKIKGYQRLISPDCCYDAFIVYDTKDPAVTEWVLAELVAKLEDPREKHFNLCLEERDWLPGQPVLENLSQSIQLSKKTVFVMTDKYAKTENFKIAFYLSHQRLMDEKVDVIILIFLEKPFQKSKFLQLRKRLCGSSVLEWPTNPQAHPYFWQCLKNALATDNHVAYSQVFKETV

Toll-like 8 receptor = target: T2, Toll-like 8 receptor (Homo sapiens, UniProt Q9NR97); details: cited from earlier work
T2 sequence (Q9NR97 27-1041): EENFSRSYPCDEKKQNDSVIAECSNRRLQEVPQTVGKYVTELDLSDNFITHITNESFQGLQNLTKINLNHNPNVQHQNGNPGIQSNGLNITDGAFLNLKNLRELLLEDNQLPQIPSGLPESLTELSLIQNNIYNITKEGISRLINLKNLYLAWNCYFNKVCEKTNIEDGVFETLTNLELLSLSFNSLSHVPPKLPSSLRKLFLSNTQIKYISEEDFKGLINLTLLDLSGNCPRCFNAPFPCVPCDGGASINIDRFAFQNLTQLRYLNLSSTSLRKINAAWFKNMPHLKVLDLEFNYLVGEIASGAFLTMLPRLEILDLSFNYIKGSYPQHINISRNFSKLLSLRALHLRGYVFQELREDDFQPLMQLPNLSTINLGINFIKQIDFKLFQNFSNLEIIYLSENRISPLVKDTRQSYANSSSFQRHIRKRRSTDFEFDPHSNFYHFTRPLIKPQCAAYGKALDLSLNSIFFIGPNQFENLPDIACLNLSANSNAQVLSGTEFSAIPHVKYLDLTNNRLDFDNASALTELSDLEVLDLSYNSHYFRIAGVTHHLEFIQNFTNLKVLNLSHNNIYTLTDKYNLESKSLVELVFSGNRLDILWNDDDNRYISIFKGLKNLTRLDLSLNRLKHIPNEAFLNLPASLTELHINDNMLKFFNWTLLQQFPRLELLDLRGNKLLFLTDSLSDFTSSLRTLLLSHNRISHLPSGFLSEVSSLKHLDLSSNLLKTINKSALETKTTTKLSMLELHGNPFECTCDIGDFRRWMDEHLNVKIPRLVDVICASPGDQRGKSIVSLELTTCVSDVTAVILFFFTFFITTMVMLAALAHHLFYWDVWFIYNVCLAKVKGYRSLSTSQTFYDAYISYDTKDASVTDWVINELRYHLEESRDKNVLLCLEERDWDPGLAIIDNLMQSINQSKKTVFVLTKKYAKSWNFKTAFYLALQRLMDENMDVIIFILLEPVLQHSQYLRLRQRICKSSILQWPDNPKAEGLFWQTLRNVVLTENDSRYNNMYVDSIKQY

mice = details: ovalbumin as antigen; cited from earlier work

Structure (SMILES)	IgG2a response obtained after the injection of the booster, individual mice (FIGS. 1 to 4) (BALB/c mice)	Percentage of cells expressing the markers CD25 [1] [%]	Percentage of cells expressing the markers CD80 [1] [%]	Percentage of cells expressing the markers CD83 [1] [%]	Quantity of cytokines IL 6 [2] [pg/mL]	Quantity of cytokines IL12p70 [2] [pg/mL]	Quantity of cytokines TNF-α [2] [pg/mL]	activation of cells via the Toll-like 7 receptor (Toll-like 7 receptor)	activation of cells via the Toll-like 8 receptor (Toll-like 8 receptor)	adjuvant type (mice)
CCCCCCCCCCCC(=O)CC(=O)N[C@H](COCC[C@@H](CCCCCCC)OC(=O)CCCCCCCCCCC)COP(=O)(O)OCCNC(=O)NCCOP(=O)(O)OC[C@@H](COCC[C@@H](CCCCCCC)OC(=O)CCCCCCCCCCC)NC(=O)CC(=O)CCCCCCCCCCC [ER804057, (1R,6R,22R,27R)-1,27-diheptyl-1,27-bisdodecanoyl-9,19-dihydroxy-9,19-dioxido-14-oxo-6,22-bis[(1,3-dioxotetradecyl)amino]-4,8,10,18,20,24-hexaoxa-13,15-diaza-9,19-diphosphoheptacosan]	on average satisfactory	35	46	15	8349	22	393			
CCOCc1nc2c(N)nc3ccccc3c2n1CC(C)(C)O [R-848, 4-amino-2-ethoxymethyl-α,α-dimethyl-1-H-imidazo[4,5c]quinoline-1-ethanol]	on average satisfactory	25	34	19	8263	288	1727	activates the cells	activates the cells	adjuvant of the TH1 type
